Measured values published in US11999806B2, “Broad-spectrum polypeptide against enterovirus and application thereof” (WUHAN INSTITUTE OF VIROLOGY, CHINESE ACADEMY OF SCIENCES, priority 2018, dated 2024).
Several values for one entry are separate records, joined by “and”; a condition that tells them apart may be missing. Identical values can stand only once. Like-named read-outs stand apart in the source and are kept apart here.

Tests used:
EV71 [1] = test: Antiviral activity against EV71 in mice, virus copies in hind limb muscle by qRT-PCR; format: in vivo, ICR suckling mice
Source text: (§1) • (1) 8 2-day-old ICR mice were randomly divided into two groups, 4 in each group.

EV71 [2] = format: cell-based, enterovirus 71; conditions: EV71 0.1 MOI, RD cells, 24 h; for Virus inhibition rate (%): CCK-8
Procedure: • (1) 293T cells were plated in a 24-well cell plate. • (2) After the cells reached 70%-80% confluence, the MEM medium containing 10% serum was replaced with a MEM medium containing 2% serum (0.5 ml/well), and 5 μl of 10^6 PFU/mL EV71 virus per well was added. • (3) After 1 hour, polypeptides P2, 3A-TAT-EP, 3A-EP-DRI and 3A-EP-PEG-PA were added at a final concentration of 0.01 μM, 0.1 μM, 1 μM, and 10 μM, respectively. • (4) Samples were collected 24 hours after virus infection, and RNA was extracted with a total RNA extraction kit. • (5) The supernatant in each well was discarded, then 350 μl of TRK Lysis Buffer was added to the well and the plate was shaken on the shaker for 5 minutes. • (6) 350 μl of 70% ethanol (DEPC-treated) was added to the well and the plate was shaken on the shaker for 5 minutes. • (7) The mixture in the well was transferred to a RNA extraction column and centrifuged at 12000 g for 1 min. • (8) The solution collected in the recovery tube was added back to the column and centrifuged at 12,000 g for 1 min. • (9) RNA washing buffer 1 was added to the column and centrifuged at 12,000 g for 30 s. • (10) RNA washing buffer 2 was added to the column and centrifuged at 12,000 g for 1 min. • (11) Step (10) was repeated once. • (12) The empty column was centrifuged at 12,000 g for 2 min to completely remove residual RNA washing buffer. • (13) 50 μl DEPC-treated water was added to the column and centrifuge at 12000 g for 2 min. • (14) 2 μl RNA sample was used according to one step qRT-PCR kit for fluorescence quantification experiment. 3. […] Each concentration was tested in triplicate. • (3) The diluted virus solution was added to the plate of step (1), 100 μL per well with the final virus concentration was 0.1 MOI. Wells without polypeptide and virus (well without treatment), wells with virus only were used as controls. • (4) The mixture of step (2) was added to the 96-well plate plated with cells in step (1) and incubated in 5% CO2 at 37° C. for 24 h. Then CCK8 kit was used to determine the inhibitory effect of the polypeptide on virus. • (5) The inhibition rate of different concentrations of polypeptides on viral infection was calculated using the following formula: OD means the value of OD450-OD630, inhibition rate=(OD well with treatment−OD well with virus only)×100%/(OD well without treatment−OD well with virus only)
• (1) RD cells in good growth state were plated in a 96-well plate. • (2) After the cells reached 70%-80% confluence, the MEM medium containing 10% serum was replaced with a MEM medium containing 2% serum. Group without polypeptide and virus, and group with virus but without polypeptide were included as controls. The final virus concentration was 0.1 MOI. • (3) 1 h later, polypeptide CR at a final concentration of 5 μM, 2.5 μM, 1.25 μM, 0.625 μM, 0.3125 μM, and 0.15625 μM was added, respectively. Group without polypeptide and virus, and group with virus but without polypeptide were set as controls. • (4) 24 hours after virus infection, when the change in the control group with only virus was obvious, 10 μl of viable cell detection agent CCK-8 was added to each well and mixed well. • (5) The plate was incubated at 37° C. for 2 h. • (6) The absorbance value at OD450 was measured with a microplate reader. Inhibition rate of polypeptide=(OD well with treatment−OD well with virus only)×100%/(OD well without treatment−OD well with virus only), OD refers to the value of OD450-OD630.
• (1) RD cells in good growth state were plated in a 96-well plate. • (2) After the cells reached 70%-80% confluence, the MEM medium containing 10% serum was replaced with a MEM medium containing 2% serum. Group without polypeptide and virus, and group with virus but without polypeptide were included as controls. The final virus concentration was 0.1 MOI. • (3) 1 h later, polypeptide CR at a final concentration of 2.5 μM, 1.25 μM, 0.625 μM, 0.3125 μM, and 0.15625 μM was added, respectively. […]

CVA16 = test: Antiviral activity against CVA16 in mice, virus copies in muscle by qRT-PCR; format: in vivo, ICR suckling mice; conditions: 10 mg/kg i.p. every 12 h for 5 days vs PBS
Source text: as §1
3. The Procedure for Detecting the Antiviral Activity of P1 Against CVA16 in Mice is Similar as the EV71 Experiment.
3. The Procedure for Detecting the Antiviral Activity of CR Against CVA16 in Mice is Similar to the EV71 Experiment.

N=C(N)NCCC[C@H](NC(=O)[C@H](CS)NC(=O)CNC(=O)[C@H](CO)NC(=O)CNC(=O)[C@H](CCCNC(=N)N)NC(=O)[C@H](CCCNC(=N)N)NC(=O)[C@H](CCCNC(=N)N)NC(=O)[C@H](CCC(N)=O)NC(=O)[C@H](CCCNC(=N)N)NC(=O)[C@H](CCCNC(=N)N)NC(=O)[C@H](CCCCN)NC(=O)[C@H](CCCCN)NC(=O)[C@H](CCCNC(=N)N)NC(=O)CNC(=O)[C@@H](N)Cc1ccc(O)cc1)C(=O)O [CR]
EV71 viral load in mice, in words (EV71 [1]; 10 mg/kg i.p. every 12 h for 5 days vs PBS): can significantly reduce the EV71 viral load in mice
Number of EV71 virus copy in muscle tissue (Copies/g) (EV71 [1]; 2-day-old ICR mice, EV71 i.p., 10 mg/kg polypeptide i.p. every 12 h for 5 days, individual animals, 10 mg/kg): 1.88e+007 Copies/g and 1.122e+007 Copies/g and 1.738e+007 Copies/g and 9852432.0000 Copies/g
Virus inhibition rate (%) (EV71 [2]; 0.15625 μM): −4.346% and −7.143% and −8.595%
Virus inhibition rate (%) (EV71 [2]; 0.625 μM): 16.42% and 7.119% and 16.77%
Virus inhibition rate (%) (EV71 [2]; 1.25 μM): 50.8% and 47.5% and 45.63%
Virus inhibition rate (%) (EV71 [2]; 2.5 μM): 78.26% and 70.5% and 64.43%
Virus inhibition rate (%) (EV71 [2]; 5 μM): 74.47% and 71.5% and 69.26%
IC50 (EV71 [2]; read-out: IC50 against EV71 by CCK8 method): 1700 nM
CVA16 viral load in mice, in words (CVA16): can significantly reduce the viral load of CVA16 in mice
